# In patent US12291518B2, “Thyroid hormone receptor agonists and use thereof” (Eccogene Inc., priority 2020, dated 2025):
# Like-named read-outs stand apart in the source and are kept apart here.
# Tests used:
# THR beta-LBD = biological target: T1, THR beta-LBD (Homo sapiens, UniProt P10828); experiment: THR-β Coactivator Peptide Recruitment Assay (LanthaScreen TR-FRET); format: biochemical
# T1 construct: THR beta-LBD (the final concentration is 0.5 nM) was added to the 384-well assay plate; purchased Invitrogen PV4686
# T1 sequence (P10828 217-461 limits assumed): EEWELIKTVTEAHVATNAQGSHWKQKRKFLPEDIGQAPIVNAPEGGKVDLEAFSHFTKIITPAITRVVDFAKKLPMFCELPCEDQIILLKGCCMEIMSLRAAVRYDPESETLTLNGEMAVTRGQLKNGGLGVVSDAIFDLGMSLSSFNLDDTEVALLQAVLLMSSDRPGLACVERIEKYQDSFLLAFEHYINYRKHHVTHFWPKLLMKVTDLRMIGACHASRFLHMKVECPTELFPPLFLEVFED
# Procedure: (§1) A time-resolved FRET (TR-FRET) assay was used to test representative compounds of the application.
# (§2) THR-β Coactivator Peptide Recruitment Assay were conducted by using Invitrogen's LanthaScreen™ TR-FRET Thyroid Receptor beta Assay Kit (Catalog no. PV4686). Binding of an agonist to the nuclear receptor causes a subsequent binding of a coactivator peptide, resulting in fluorescence energy transfer from the labelled nuclear receptor to the proximal coactivator peptide, which reflects the binding affinity of the agonist and the nuclear receptor. The assay was conducted by following the manufacturer's instructions. Briefly, THR beta-LBD (the final concentration is 0.5 nM) was added to the 384-well assay plate containing test compounds, followed by addition of Fluorescein-SRC2-2 coactivator peptide and terbium (Tb)-labeled anti-GST antibody. The final concentration of THR beta-LBD, Fluorescein-SRC2-2 coactivator peptide and terbium (Tb)-labeled anti-GST antibody is 0.5 nM, 0.1 nM and 2 nM, respectively. After a gentle mix and incubation at room temperature for 2 h, the signal was read on the EnVision Multilabel Plate Reader at wavelengths of 520 nm and 495 nm. TR-FRET ratio was calculated by dividing the emission signal at 520 nm and the emission signal at 495 nm, and then was plotted against a sigmoidal dose response curve (four parameters, GraphPad™ Prism 8) to determine the EC50 value.
# THR alpha-LBD = biological target: T2, THR alpha-LBD (Homo sapiens, UniProt P10827); experiment: THR-α Coactivator Peptide Recruitment Assay (LanthaScreen TR-FRET); format: biochemical
# T2 construct: except that THR alpha-LBD of a final concentration 0.25 nM was used; purchased Invitrogen PV4687
# T2 sequence (P10827 163-410 isoform P10827-2 limits assumed, other chains not shown): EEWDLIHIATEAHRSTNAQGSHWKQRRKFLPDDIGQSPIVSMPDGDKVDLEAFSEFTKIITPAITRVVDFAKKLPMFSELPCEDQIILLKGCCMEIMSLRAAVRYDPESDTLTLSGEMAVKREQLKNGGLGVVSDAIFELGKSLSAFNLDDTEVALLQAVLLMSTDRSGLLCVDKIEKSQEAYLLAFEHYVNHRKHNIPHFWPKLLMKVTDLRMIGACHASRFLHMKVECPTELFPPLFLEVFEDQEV
# Procedure: as §1, §2
# THR-α Coactivator Peptide Recruitment Assay were conducted by using Invitrogen's LanthaScreen™ TR-FRET Thyroid Receptor alpha Assay Kit (Catalog no. PV4687), following the same method described above except that THR alpha-LBD of a final concentration 0.25 nM was used.
# [1] = TR-FRET coactivator recruitment, THR beta-LBD 0.5 nM
# [2] = TR-FRET coactivator recruitment, THR alpha-LBD 0.25 nM
# [3] = TR-FRET coactivator recruitment, THR beta-LBD 0.5 nM, read-out: THRβ EC50
# [4] = TR-FRET coactivator recruitment, THR alpha-LBD 0.25 nM, read-out: THRα EC50
Structure (SMILES),THRβ Emax (THR beta-LBD; [1]),THRα Emax (THR alpha-LBD; [2]),EC50 (THR beta-LBD; [3]) [nM],EC50 (THR alpha-LBD; [4]) [nM],EC50 (THR beta-LBD) [nM],EC50 (THR alpha-LBD) [nM]
"N#CC1CC(N[S@SP3](=O)(=O)c2cc(Oc3c(Cl)cc(-n4nc(C(F)F)c(=O)[nH]c4=O)cc3Cl)ccc2O)C1 (centres unmarked) [Compound 26, N-(3-cyanocyclobutyl)-5-[2,6-dichloro-4-[6-(difluoromethyl)-3,5-dioxo-1,2,4-triazin-2-yl]phenoxy]-2-hydroxy-benzenesulfonamide]",A (90~110),A (85~110),,,< 2,2 to 200
"O=c1[nH]c(=O)n(-c2cc(Cl)c(Oc3ccc(O)c(S(=O)(=O)N4CCC(F)(F)CC4)c3)c(Cl)c2)nc1C(F)F [Compound 27, 2-[3,5-dichloro-4-[3-[(4,4-difluoro-1-piperidyl)sulfonyl]-4-hydroxy-phenoxy]phenyl]-6-(difluoromethyl)-1,2,4-triazine-3,5-dione]",B (75~90),A (85~110),< 2,< 2,,
"O=c1[nH]c(=O)n(-c2cc(Cl)c(Oc3ccc(O)c(S(=O)(=O)N[C@H]4CCOC4)c3)c(Cl)c2)nc1C(F)F [Compound 29, (S)-5-(2,6-dichloro-4-(6-(difluoromethyl)-3,5-dioxo-4,5-dihydro-1,2,4-triazin-2(3H)-yl)phenoxy)-2-hydroxy-N-(tetrahydrofuran-3-yl)benzenesulfonamide]",A (90~110),A (85~110),< 2,2 to 200,,
"O=c1[nH]c(=O)n(-c2cc(Cl)c(Oc3ccc(O)c(S(=O)(=O)N[C@@H]4CCOC4)c3)c(Cl)c2)nc1C(F)F [Compound 30, (R)-5-(2,6-dichloro-4-(6-(difluoromethyl)-3,5-dioxo-4,5-dihydro-1,2,4-triazin-2(3H)-yl)phenoxy)-2-hydroxy-N-(tetrahydrofuran-3-yl)benzenesulfonamide]",A (90~110),A (85~110),< 2,< 2,,
"O=c1[nH]c(=O)n(-c2cc(Cl)c(Oc3ccc(O)c(S(=O)(=O)N4CCNCC4)c3)c(Cl)c2)nc1C(F)F [Compound 31, 2-(3,5-dichloro-4-(4-hydroxy-3-(piperazin-1-ylsulfonyl)phenoxy)phenyl)-6-(difluoromethyl)-1,2,4-triazine-3,5(2H,4H)-dione]",C (<75),B (40~85),2 to 20,2 to 200,,
"CN1CCN(S(=O)(=O)c2cc(Oc3c(Cl)cc(-n4nc(C(F)F)c(=O)[nH]c4=O)cc3Cl)ccc2O)CC1=O [Compound 33, 2-(3,5-dichloro-4-(4-hydroxy-3-((4-methyl-3-oxopiperazin-1-yl)sulfonyl)phenoxy)phenyl)-6-(difluoromethyl)-1,2,4-triazine-3,5(2H,4H)-dione]",C (<75),B (40~85),< 2,2 to 200,,
"CO[C@H]1C[C@H](NS(=O)(=O)c2cc(Oc3c(Cl)cc(-n4nc(C(F)F)c(=O)[nH]c4=O)cc3Cl)ccc2O)C1 [Compound 36, 5-(2,6-dichloro-4-(6-(difluoromethyl)-3,5-dioxo-4,5-dihydro-1,2,4-triazin-2(3H)-yl)phenoxy)-2-hydroxy-N-((1r,3r)-3-methoxycyclobutyl)benzenesulfonamide]",B (75~90),B (40~85),2 to 20,2 to 200,,
"CO[C@H]1C[C@@H](NS(=O)(=O)c2cc(Oc3c(Cl)cc(-n4nc(C(F)F)c(=O)[nH]c4=O)cc3Cl)ccc2O)C1 [Compound 37, 5-(2,6-dichloro-4-(6-(difluoromethyl)-3,5-dioxo-4,5-dihydro-1,2,4-triazin-2(3H)-yl)phenoxy)-2-hydroxy-N-((1s,3s)-3-methoxycyclobutyl)benzenesulfonamide]",B (75~90),A (85~110),2 to 20,2 to 200,,
"O=c1[nH]c(=O)n(-c2cc(Cl)c(Oc3ccc(O)c(S(=O)(=O)N4CC(O)C4)c3)c(Cl)c2)nc1C(F)F [Compound 40, 2-[3,5-dichloro-4-[4-hydroxy-3-(3-hydroxyazetidin-1-yl)sulfonyl-phenoxy]phenyl]-6-(difluoromethyl)-1,2,4-triazine-3,5-dione]",B (75~90),A (85~110),< 2,2 to 200,,
"C[C@@H](CO)NS(=O)(=O)c1cc(Oc2c(Cl)cc(-n3nc(C(F)F)c(=O)[nH]c3=O)cc2Cl)ccc1O [Compound 41, (S)-5-(2,6-dichloro-4-(6-(difluoromethyl)-3,5-dioxo-4,5-dihydro-1,2,4-triazin-2(3H)-yl)phenoxy)-2-hydroxy-N-(1-hydroxypropan-2-yl)benzenesulfonamide]",B (75~90),A (85~110),< 2,2 to 200,,

# The next lines start with results.
THRβ Emax (THR beta-LBD; [1]),THRα Emax (THR alpha-LBD; [2]),EC50 (THR beta-LBD; [3]) [nM],EC50 (THR alpha-LBD; [4]) [nM],Structure (SMILES),EC50 (THR beta-LBD) [nM],EC50 (THR alpha-LBD) [nM]
B (75~90),A (85~110),< 2,< 2,"O=c1[nH]c(=O)n(-c2cc(Cl)c(Oc3ccc(O)c(S(=O)(=O)N4CCC4)c3)c(Cl)c2)nc1C(F)F [Compound 28, 2-(4-(3-(azetidin-1-ylsulfonyl)-4-hydroxyphenoxy)-3,5-dichlorophenyl)-6-(difluoromethyl)-1,2,4-triazine-3,5(2H,4H)-dione]",,
C (<75),C (<40),2 to 20,2 to 200,"O=C(C1CC1)N1CCN(S(=O)(=O)c2cc(Oc3c(Cl)cc(-n4nc(C(F)F)c(=O)[nH]c4=O)cc3Cl)ccc2O)CC1 [Compound 32, 2-(3,5-dichloro-4-(3-((4-(cyclopropanecarbonyl)piperazin-1-yl)sulfonyl)-4-hydroxyphenoxy)phenyl)-6-(difluoromethyl)-1,2,4-triazine-3,5(2H,4H)-dione]",,
B (75~90),A (85~110),2 to 20,2 to 200,"O=C(N1CCC1)C1(NS(=O)(=O)c2cc(Oc3c(Cl)cc(-n4nc(C(F)F)c(=O)[nH]c4=O)cc3Cl)ccc2O)CC1 [Compound 38, N-(1-(azetidine-1-carbonyl)cyclopropyl)-5-(2,6-dichloro-4-(6-(difluoromethyl)-3,5-dioxo-4,5-dihydro-1,2,4-triazin-2(3H)-yl)phenoxy)-2-hydroxybenzenesulfonamide]",,
C (<75),B (40~85),< 2,2 to 200,"CS(=O)(=O)[C@H]1CCN(S(=O)(=O)c2cc(Oc3c(Cl)cc(-n4nc(C(F)F)c(=O)[nH]c4=O)cc3Cl)ccc2O)C1 [Compound 39, (S)-2-(3,5-dichloro-4-(4-hydroxy-3-((3-(methylsulfonyl)pyrrolidin-1-yl)sulfonyl)phenoxy)phenyl)-6-(difluoromethyl)-1,2,4-triazine-3,5(2H,4H)-dione]",,
A (90~110),A (85~110),2 to 20,2 to 200,"O=c1[nH]c(=O)n(-c2cc(Cl)c(Oc3ccc(O)c(S(=O)(=O)NC[C@H]4C[C@H](O)C4)c3)c(Cl)c2)nc1C(F)F [Compound 43, 5-(2,6-dichloro-4-(6-(difluoromethyl)-3,5-dioxo-4,5-dihydro-1,2,4-triazin-2(3H)-yl)phenoxy)-2-hydroxy-N-(((1r,3r)-3-hydroxycyclobutyl)methyl)benzenesulfonamide]",,
B (75~90),A (85~110),2 to 20,2 to 200,"O=c1[nH]c(=O)n(-c2cc(Cl)c(Oc3ccc(O)c(S(=O)(=O)NC[C@H]4C[C@@H](O)C4)c3)c(Cl)c2)nc1C(F)F [Compound 44, 5-(2,6-dichloro-4-(6-(difluoromethyl)-3,5-dioxo-4,5-dihydro-1,2,4-triazin-2(3H)-yl)phenoxy)-2-hydroxy-N-(((1s,3s)-3-hydroxycyclobutyl)methyl)benzenesulfonamide]",,
B (75~90),A (85~110),< 2,2 to 200,"C[C@H](CO)NS(=O)(=O)c1cc(Oc2c(Cl)cc(-n3nc(C(F)F)c(=O)[nH]c3=O)cc2Cl)ccc1O [Compound 45, (R)-5-(2,6-dichloro-4-(6-(difluoromethyl)-3,5-dioxo-4,5-dihydro-1,2,4-triazin-2(3H)-yl)phenoxy)-2-hydroxy-N-(1-hydroxypropan-2-yl)benzenesulfonamide]",,
